SMILES strings stand for the structures.

This experiment deals with T1, GCS (Canis lupus familiaris, UniProt A0A8I3MXG6).
T1 construct: endogenous in cells; host or cells: MDCK (Madin-Darby canine kidney) cells, whole-cell lysate
T1 sequence (A0A8I3MXG6 1-394): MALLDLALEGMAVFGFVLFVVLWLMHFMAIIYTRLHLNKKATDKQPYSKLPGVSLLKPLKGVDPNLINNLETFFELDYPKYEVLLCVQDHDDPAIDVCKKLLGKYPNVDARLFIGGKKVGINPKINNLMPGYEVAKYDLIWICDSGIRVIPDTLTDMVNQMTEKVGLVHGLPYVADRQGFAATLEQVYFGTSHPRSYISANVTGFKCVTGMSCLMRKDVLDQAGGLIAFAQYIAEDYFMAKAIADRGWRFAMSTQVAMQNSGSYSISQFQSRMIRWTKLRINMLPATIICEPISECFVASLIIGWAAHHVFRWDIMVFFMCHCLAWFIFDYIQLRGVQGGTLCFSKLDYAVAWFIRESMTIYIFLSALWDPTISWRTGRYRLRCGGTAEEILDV
As to the kind of experiment: GCS enzymatic assay (MDCK cell lysate, NBD-ceramide to glucosylceramide, LC/MS). The class given is biochemical, canine. Particulars: Table 2, the table does not say which of the assays; for IC50: class symbols A, B, C, read-out: Data Range (IC50 values); for Data Range (% inhibition): class symbols D, E, F, NA (not active). A digest of the protocol: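 IC50 or percent inhibition came from LC/MS/MS (ESI+, MRM) of NBD-ceramide and glucosylceramide, with tolbutamide as internal standard. The reaction used MDCK (canine) cell lysate as the enzyme source and was ended with acetonitrile. Mock wells received 0.1% DMSO.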

Consider `O=C(N[C@H](CN1CCCC1)[C@H](O)c1cc(F)c2c(c1)OCCO2)[C@@H]1CCN(c2cccc(-c3ccc(F)cc3)n2)C1` [Compound 124, (R)-N-((1R,2R)-1-(8-fluoro-2,3-dihydrobenzo[b][1,4]dioxin-6-yl)-1-hydroxy-3-(pyrrolidin-1-yl)propan-2-yl)-1-(6-(4-fluorophenyl)pyridin-2-yl)pyrrolidine-3-carboxamide], for which the IC50 lay in the range of 1 to 30 nM. Take `Cn1ncc2cc(N3CC[C@@H](C(=O)N[C@H](CN4CCCC4)[C@H](O)c4cc(F)c5c(c4)OCCO5)C3)ccc21` [Compound 125, (R)-N-((1R,2R)-1-(8-fluoro-2,3-dihydrobenzo[b][1,4]dioxin-6-yl)-1-hydroxy-3-(pyrrolidin-1-yl)propan-2-yl)-1-(1-methyl-1H-indazol-5-yl)pyrrolidine-3-carboxamide]: the “Data Range (% inhibition)” value is reported as “E (50-74% (or less than 75%))”. As for `O=C(N[C@H](CN1CCCC1)[C@H](O)c1ccc(OC2CC2)c(Cl)c1)[C@@H]1CCN(c2cccc(-c3ccc(F)cc3)n2)C1` [Compound 126, (R)-N-((1R,2R)-1-(3-chloro-4-cyclopropoxyphenyl)-1-hydroxy-3-(pyrrolidin-1-yl)propan-2-yl)-1-(6-(4-fluorophenyl)pyridin-2-yl)pyrrolidine-3-carboxamide], the IC50 is 1 to 30 nM.

Take `Cn1ncc2cc(N3CC[C@@H](C(=O)N[C@H](CN4CCCC4)[C@H](O)c4ccc(OC5CC5)c(Cl)c4)C3)ccc21` [Compound 127, (R)-N-((1R,2R)-1-(3-chloro-4-cyclopropoxyphenyl)-1-hydroxy-3-(pyrrolidin-1-yl)propan-2-yl)-1-(1-methyl-1H-indazol-5-yl)pyrrolidine-3-carboxamide]: the “Data Range (% inhibition)” value is reported as “E (50-74% (or less than 75%))”. In the case of `O=C(N[C@H](CN1CCCC1)[C@H](O)c1ccc(OC2CC2)c(Cl)c1)[C@@H]1CCN(c2ccc(Cl)c(Oc3ccc(F)cc3)c2)C1` [Compound 128, (R)-1-(4-chloro-3-(4-fluorophenoxy)phenyl)-N-((1R,2R)-1-(3-chloro-4-cyclopropoxyphenyl)-1-hydroxy-3-(pyrrolidin-1-yl)propan-2-yl)pyrrolidine-3-carboxamide], the IC50 lay in the range of 1 to 30 nM. Consider `O=C(N[C@H](CN1CCCC1)[C@H](O)c1ccc(OC2CC2)c(Cl)c1)[C@@H]1CCN(C(=O)c2ccccc2)C1` [Compound 129, (R)-1-benzoyl-N-((1R,2R)-1-(3-chloro-4-cyclopropoxyphenyl)-1-hydroxy-3-(pyrrolidin-1-yl)propan-2-yl)pyrrolidine-3-carboxamide], for which the “Data Range (% inhibition)” value is on record as “F (1-49% (or less than 50%))”.

Consider `O=C(N[C@H](CN1CCCC1)[C@H](O)c1ccc2c(c1F)OCCO2)[C@@H]1CCN(c2ccc(Cl)cc2)C1` [Compound 130, (R)-1-(4-chlorophenyl)-N-((1R,2R)-1-(5-fluoro-2,3-dihydrobenzo[b][1,4]dioxin-6-yl)-1-hydroxy-3-(pyrrolidin-1-yl)propan-2-yl)pyrrolidine-3-carboxamide], for which the “Data Range (% inhibition)” value is listed as “E (50-74% (or less than 75%))”.

Consider `Cc1cccc(Oc2cc(N3CC[C@@H](C(=O)N[C@H](CN4CCCC4)[C@H](O)c4ccc(OC5CC5)c(Cl)c4)C3)ccc2Cl)n1` [Compound 131, (R)-1-(4-chloro-3-((6-methylpyridin-2-yl)oxy)phenyl)-N-((1R,2R)-1-(3-chloro-4-cyclopropoxyphenyl)-1-hydroxy-3-(pyrrolidin-1-yl)propan-2-yl)pyrrolidine-3-carboxamide], for which the IC50 lay in the range of 1 to 30 nM.

`Cn1ncc2ccc(N3CC[C@@H](C(=O)N[C@H](CN4CCCC4)[C@H](O)c4cc(F)c5c(c4)OCCO5)C3)cc21` [Compound 132, (R)-N-((1R,2R)-1-(8-fluoro-2,3-dihydrobenzo[b][1,4]dioxin-6-yl)-1-hydroxy-3-(pyrrolidin-1-yl)propan-2-yl)-1-(1-methyl-1H-indazol-6-yl)pyrrolidine-3-carboxamide]: the IC50 is 1 to 30 nM. Turning to `Cn1ncc2ccc(N3CC[C@@H](C(=O)N[C@H](CN4CCCC4)[C@H](O)c4ccc(OC5CC5)c(Cl)c4)C3)cc21` [Compound 133, (R)-N-((1R,2R)-1-(3-chloro-4-cyclopropoxyphenyl)-1-hydroxy-3-(pyrrolidin-1-yl)propan-2-yl)-1-(1-methyl-1H-indazol-6-yl)pyrrolidine-3-carboxamide], the IC50 fell in the range of 1 to 30 nM. Regarding `Cn1ncc2ccc(N3CC[C@@H](C(=O)N[C@H](CN4CCC4)[C@H](O)c4cc(F)c5c(c4)OCCO5)C3)cc21` [Compound 134, (R)-N-((1R,2R)-3-(azetidin-1-yl)-1-(8-fluoro-2,3-dihydrobenzo[b][1,4]dioxin-6-yl)-1-hydroxypropan-2-yl)-1-(1-methyl-1H-indazol-6-yl)pyrrolidine-3-carboxamide], the IC50 lay within 1 to 30 nM.

For `CC(C)(C)Oc1ccc([C@@H](O)[C@@H](CN2CCCC2)NC(=O)[C@@H]2CCN(c3ccc(Cl)cc3)C2)cc1Cl` [Compound 135, (R)-N-((1R,2R)-1-(4-(tert-butoxy)-3-chlorophenyl)-1-hydroxy-3-(pyrrolidin-1-yl)propan-2-yl)-1-(4-chlorophenyl)pyrrolidine-3-carboxamide], the IC50 is 1 to 30 nM. `O=C(N[C@H](CN1CCCC1)[C@H](O)c1ccc(OC2CC2)c(Cl)c1)[C@@H]1CCN(c2ccc(Cl)c(OC3CCCCC3)c2)C1` [Compound 136, (R)-1-(4-chloro-3-(cyclohexyloxy)phenyl)-N-((1R,2R)-1-(3-chloro-4-cyclopropoxyphenyl)-1-hydroxy-3-(pyrrolidin-1-yl)propan-2-yl)pyrrolidine-3-carboxamide]: the IC50 was in the range of 1 to 30 nM. The same measure, in the same setting: the value for `O=C(N[C@H](CN1CCCC1)[C@H](O)c1cc2c(c(C(F)(F)F)c1)OCCO2)[C@@H]1CCN(c2ccc(Cl)cc2)C1` [Compound 137, (R)-1-(4-chlorophenyl)-N-((1R,2R)-1-hydroxy-3-(pyrrolidin-1-yl)-1-(8-(trifluoromethyl)-2,3-dihydrobenzo[b][1,4]dioxin-6-yl)propan-2-yl)pyrrolidine-3-carboxamide] was 30 to 100 nM; that for `O=C(N[C@H](CN1CCCC1)[C@H](O)c1ccc(OC2CC2)c(Cl)c1)[C@@H]1CCN(c2ccc(Cl)c(-c3ccc(F)cc3)c2)C1` [Compound 138, (R)-1-(6-chloro-4′-fluoro-[1,1′-biphenyl]-3-yl)-N-((1R,2R)-1-(3-chloro-4-cyclopropoxyphenyl)-1-hydroxy-3-(pyrrolidin-1-yl)propan-2-yl)pyrrolidine-3-carboxamide] was 30 to 100 nM.

`CC(C)(C)c1ccc(N2CC[C@@H](C(=O)N[C@H](CN3CCCC3)[C@H](O)c3ccc(OC4CC4)c(Cl)c3)C2)cc1` [Compound 139, (R)-1-(4-(tert-butyl)phenyl)-N-((1R,2R)-1-(3-chloro-4-cyclopropoxyphenyl)-1-hydroxy-3-(pyrrolidin-1-yl)propan-2-yl)pyrrolidine-3-carboxamide]: the IC50 was in the range of 30 to 100 nM. Consider `O=C(N[C@H](CN1CCCC1)[C@H](O)c1ccc(OC2CCC2)c(Cl)c1)[C@@H]1CCN(c2ccc(Cl)cc2)C1` [Compound 140, (R)-N-((1R,2R)-1-(3-chloro-4-cyclobutoxyphenyl)-1-hydroxy-3-(pyrrolidin-1-yl)propan-2-yl)-1-(4-chlorophenyl)pyrrolidine-3-carboxamide], for which the IC50 is 1 to 30 nM.

One may read the IC50 as the concentration that gives 50% inhibition.

These data come from patent US10239832B2, “N-(1-hydroxy-3-(pyrrolidinyl)propan-2-yl)pyrrolidine-3-carboxamide derivatives as glucosylceramide synthase inhibitors” (BIOMARIN PHARMACEUTICAL INC., priority 2013, dated 2019).
